Results: patent US20240366577A1, “CONTROLLED LONG-TERM DRUG DELIVERY AND METHODS THEREOF” (THE JOHNS HOPKINS UNIVERSITY, priority 2021, published 2024)

Assay: in vitro release under accelerated release conditions
Type: physicochemical
Conditions: 37° C., PBS+0.3% SDS, 2.9 mg drug, 12-day time course; amorphous vs 50 μm vs 150-200 μm crystals
Description: After crystals visibly stopped precipitating or growing, the vessel was submerged in an ultrasonic water bath for 10-30 seconds to dislodge crystals from the vessel sidewall and break them into more a uniform size distributions, either smaller fines, for example 50 μm, or between 150-200 μm, as measured by brightfield and scanning electron microscopy, shown in FIGS. 2A-2B. Resultant product was then removed from the supernatant mother solution, dried, weighed, and stored for later use. On average, yielded crystal was approximately 40% of the starting powder. Furthermore, methods exist to quantify solubilized material, typically using optics to identify changes in light transmittance, and enabled testing of crystal stability in a range of aqueous solutions. […] To simulate cumulative drug release over time, all 3 mL supernatant volumes were removed and replaced with completely fresh release media at desired times of 1 hr, 4 hr, 6 hr, 8 hr, 10 hr, 1 day, 2 days, 5 days, 7 days, 10 days and 12 days, and 200 μL aliquots were measured in individual wells of a 96-well plate at 266 nm to determine solubilize sorafenib release, as shown in FIG. 2D.
Release studies were carried out under accelerated conditions in PBS with 0.3% w/v SDS in 1X PBS. […] Drug concentration in samples was measured using a UV-calibrated Tecan infinite M200 PRO. […]

**Q.** For `CNC(=O)c1cc(Oc2ccc(NC(=O)Nc3ccc(Cl)c(C(F)(F)F)c3)cc2)ccn1` [crystalline sorafenib, sorafenib], which “release of solubilized sorafenib (cumulative)” value is on record?
**A.** tuned by varying crystal
